# Source: paper PMC11881437 (Molecular Medicine, 2025)
# Assays:
# Type in all cases: cell-based, human
# OCT4, NANOG and SOX2 = experiment: Western blot of stemness factors in sorted CD44+/CD133+ cells; conditions: 24 h, compared to 5FU treated group
# From the text: CD44^+/CD133^+ cells were isolated using MACS LS column (Miltenyi Biotec, USA) after leveled with CD44 and CD133 antibody conjugated with microbeads (Miltenyi Biotec, USA) by following manufacture’s protocol and subjected to further analysis. Cells expressing both CD44 and CD133 were isolated using magnetic cell sorter (MACS) (Guerriero et al. [2017]).
# Protein samples were extracted from treated and untreated cells and subjected to western blot analysis by standard protocol (Bhowmik et al. [2013]). Cells were incubated with Brefeldin A (10 µg/ml) for 4 h before harvesting to determine VEGFA expression. Briefly, cells were lysed with RIPA buffer [50 mmol/L Tris–HCl (pH 7.8), 150 mmol/L NaCl, 1% Triton X-100, 0.1% SDS, 0.5% sodium deoxycholate, and 1 mmol/L EDTA] containing complete protease inhibitor cocktail. Equal amount of protein was electrophoresed on SDS-PAGE and electro transferred onto polyvinylidene difluoride (PVDF) membranes using Bio-Rad mini gel apparatus. […] Signals were detected with the ECL system (Promega, USA) and images were captured in iBright™ CL1500 Imaging System.
# [1] = tested on: CES from HIF1α transfected HCT116 cells; experiment: Diameter and number of CES from HIF1α transfected HCT116 cells
# Description: HCT116 CRC cells were grown in ultra-low attachment plate in 3dGRO™ Spheroid Medium (Sigma-Aldrich, USA) for 7 days. Spheroids enriched with CSCs were considered as CSC enriched spheres (CESs) or commonly referred as tumorospheres. After 7 days, tumorospheres were subjected to different treatments for 24 h, as per experimental protocol. Media of tumorospheres of all the treatment groups were collected, centrifuged to remove the cell debris and suspended spheres, supernatants were collected and vacuum concentrated. These supernatants were referred as conditioned medium (CM) and were stored at − 20 °C until use.
# (§1) HCT116 cells were transiently transfected with HA-HIF1α-pcDNA3 plasmid (Addgene, USA, Plasmid #18949) by using lipofectamineTM 2000 (Thermo Fisher Scientific, USA) according to the manufacturer’s instructions. After 24 h of transfection, those cells were subjected to various experiments.
# [2] = tested on: CD44+/CD133+ cell population in HIF1α transfected HCT116 derived tumorospheres; experiment: Flow cytometry of CD44+/CD133+ cells in CES from HIF1α transfected HCT116 cells; conditions: transfected control 28.9%
# Description: as §1
# Percentages of CD44^+/CD133^+ cell population were determined within tumorospheres and HIF1α positive cells were determined within the CD44^+/CD133^+ cell population using a flow cytometer (BD LSRFortessa™ X-20) and analyzed by BD FACSDiva™ software.
structure (smiles),measurement,setting,value
O=c1cc(-c2ccc(O)c(O)c2)oc2c([C@@H]3O[C@H](CO)[C@@H](O)[C@H](O)[C@H]3O)c(O)cc(O)c12 [Orientin],"protein expression of OCT4, NANOG and SOX2","OCT4, NANOG and SOX2",downregulated
same,diameter of spheres,[1],decrease
same,number of spheres,[1],decrease
same,CD44+/CD133+ cell population,[2],16.4%
